Patent publication EP4707280A1, “1,4-CINEOLE DERIVATIVE AND INTERMEDIATE THEREOF, HERBICIDE CONTAINING SAID DERIVATIVE AS ACTIVE INGREDIENT, METHOD FOR USING HERBICIDE, AND METHOD FOR PREPARING AGROCHEMICAL COMPOSITION” (HOKKO CHEMICAL INDUSTRY CO., LTD., priority 2023, dated 2024)

Columns and labels:
Type in all cases: in vivo
[1] = tested on: Echinochloa crus-galli var. formosensis; assay: Test Example 1: herbicidal effect test by soil application in paddy rice; conditions: Echinochloa crus-galli, soil, 336 h; 120 g active ingredient per 10 ares; applied immediately after sowing, flooded pots; 14 days after application; read-out: weed inhibition rate
Procedure, shortened: (§1)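 Pre-emergence paddy soil application, 120 g a.i./10 a, emulsifiable concentrate diluted in water, applied by dropper right after sowing. Seeds (30/species) sown 0–1 cm in puddled, fertilized soil; flooded ~3 cm; glass greenhouse.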

[2] = tested on: Scirpus juncoides; assay: as above; conditions: Schoenoplectiella juncoides, soil, 336 h; 120 g active ingredient per 10 ares; applied immediately after sowing, flooded pots; 14 days after application; read-out: weed inhibition rate
Procedure, shortened: as §1

[3] = tested on: Echinochloa crus-galli var. formosensis; assay: Test Example 2: herbicidal effect test by application during growth period of paddy rice; conditions: Echinochloa crus-galli; 120 g per 10 ares; applied seven days after sowing, flooded pots; 14 days after application; read-out: weed inhibition rate
Procedure, shortened: (§2)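 Greenhouse pots of flooded paddy soil, seeded shallowly with 30 seeds per weed, are treated on day 7 by dropper with diluted emulsifiable concentrate equal to 120 g a.i./10 a. Duplicate pots are scored for inhibition rate 14 days post-application.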

[4] = tested on: Scirpus juncoides; assay: as above; conditions: Schoenoplectiella juncoides; 120 g per 10 ares; applied seven days after sowing, flooded pots; 14 days after application; read-out: weed inhibition rate
Procedure, shortened: as §2

[5] = tested on: Digitaria ciliaris; assay: Test Example 3: herbicidal effect test by soil application in upland field; conditions: Digitaria ciliaris, 120 g per 10 ares, sprayed one day after sowing, 14 days after application, read-out: weed inhibition rate
Procedure, shortened: (§3)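 Weed inhibition (%) was assessed 14 days after treatment, in duplicate per concentration group. Seeds had been mixed into the upper 1 cm of upland alluvial loam, and the soil surface was sprayed one day later with the diluted emulsifiable concentrate at 120 g active ingredient per 10 ares.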

[6] = tested on: Echinochloa crus-galli; assay: as above; conditions: Echinochloa crus-galli, 120 g per 10 ares, sprayed one day after sowing, 14 days after application, read-out: weed inhibition rate
Procedure, shortened: as §3

[7] = tested on: Digitaria ciliaris; assay: Test Example 4: herbicidal effect test by stem and leaf treatment in upland field; conditions: Digitaria ciliaris; 120 g per 10 ares; sprayed seven days after sowing, upland soil; 14 days after application; read-out: weed inhibition rate
[8] = tested on: Echinochloa crus-galli; assay: as above; conditions: Echinochloa crus-galli; 120 g per 10 ares; sprayed seven days after sowing, upland soil; 14 days after application; read-out: weed inhibition rate
[9] = tested on: Echinochloa crus-galli var. formosensis; assay: Test Example 5: herbicidal effect test by soil application in paddy rice (low dose); conditions: Echinochloa crus-galli, soil, 336 h; 7.5 g per 10 ares; applied immediately after sowing, flooded pots; 14 days after application; read-out: weed inhibition rate
Procedure, shortened: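 7.5 g a.i./10 a applied by dropper into ~3 cm floodwater immediately post-sowing (seeds 0–1 cm, 30 per species; puddled fertilized paddy soil, glasshouse). Duplicates; day-14 inhibition %.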

[10] = tested on: Echinochloa crus-galli var. formosensis; assay: Test Example 6: herbicidal effect test by application during growth period of paddy rice (low dose); conditions: Echinochloa crus-galli; 7.5 g per 10 ares; applied seven days after sowing, flooded pots; 14 days after application; read-out: weed inhibition rate
Procedure, shortened: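 Formulated compound, diluted in water, was dropped onto flooded pots seven days post-sowing at 7.5 g a.i. per 10 ares. Seeds had been sown 0-1 cm deep in puddled paddy soil under ~3 cm water in a glass greenhouse. Inhibition (%) assessed at 14 days; duplicate pots.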

[11] = tested on: Digitaria ciliaris; assay: Test Example 7: herbicidal effect test by soil application in upland field (low dose); conditions: Digitaria ciliaris, 7.5 g per 10 ares, sprayed one day after sowing, 14 days after application, read-out: weed inhibition rate
Procedure, shortened: (§4)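 Duplicate pots of alluvial loam, seeds incorporated in the surface 1 cm. Soil surface sprayed 1 d after sowing (EC in water, 100 L/10 a; 7.5 g a.i./10 a). Endpoint: % inhibition, day 14.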

[12] = tested on: Echinochloa crus-galli; assay: as above; conditions: Echinochloa crus-galli, 7.5 g per 10 ares, sprayed one day after sowing, 14 days after application, read-out: weed inhibition rate
Procedure, shortened: as §4

[13] = tested on: Digitaria ciliaris; assay: Test Example 8: herbicidal effect test by stem and leaf treatment in upland field (low dose); conditions: Digitaria ciliaris; 7.5 g per 10 ares; sprayed seven days after sowing, upland soil; 14 days after application; read-out: weed inhibition rate
[14] = tested on: Echinochloa crus-galli; assay: as above; conditions: Echinochloa crus-galli; 7.5 g per 10 ares; sprayed seven days after sowing, upland soil; 14 days after application; read-out: weed inhibition rate

CC(C)C12C=CC(C)(O1)C(OCc1ccccn1)C2 (stereo not drawn) [3-755, 2-[(1-methyl-4-isopropyl-7-oxabicyclo[2.2.1]hept-5-en-2-yl)oxymethyl]pyridine]
≥ 80%: pest or weed control at 1200 g/ha [1] | pest or weed control at 1200 g/ha [2] | inhibition at 1200 g/ha [3] | inhibition at 1200 g/ha [4] | inhibition at 1200 g/ha [5] | inhibition at 1200 g/ha [6] | inhibition at 1200 g/ha [7] | inhibition at 1200 g/ha [8] | inhibition at 75 g/ha [9] | inhibition at 75 g/ha [10] | inhibition at 75 g/ha [11] | inhibition at 75 g/ha [12] | inhibition at 75 g/ha [13] | inhibition at 75 g/ha [14]

CC(C)C12CC(OCc3ccccc3Br)C(C)(CC1I)O2 (stereo not drawn) [1-1427, 5-[(2-bromophenyl)methoxy]-2-iodo-1-isopropyl-4-methyl-7-oxabicyclo[2.2.1]heptane]
≥ 80%: pest or weed control at 1200 g/ha [1] | pest or weed control at 1200 g/ha [2] | inhibition at 1200 g/ha [3] | inhibition at 1200 g/ha [4] | inhibition at 1200 g/ha [5] | inhibition at 1200 g/ha [6] | inhibition at 1200 g/ha [7] | inhibition at 1200 g/ha [8] | inhibition at 75 g/ha [9] | inhibition at 75 g/ha [10] | inhibition at 75 g/ha [11] | inhibition at 75 g/ha [12] | inhibition at 75 g/ha [13] | inhibition at 75 g/ha [14]

CC(C)C12CC(OCc3ccccc3)C(C)(CC1I)O2 (stereo not drawn) [1-1408, 5-iodo-1-methyl-2-phenylmethoxy-4-isopropyl-7-oxabicyclo[2.2.1]heptane]
≥ 80%: pest or weed control at 1200 g/ha [1] | pest or weed control at 1200 g/ha [2] | inhibition at 1200 g/ha [3] | inhibition at 1200 g/ha [4] | inhibition at 1200 g/ha [5] | inhibition at 1200 g/ha [6] | inhibition at 1200 g/ha [7] | inhibition at 1200 g/ha [8] | inhibition at 75 g/ha [9] | inhibition at 75 g/ha [10] | inhibition at 75 g/ha [11] | inhibition at 75 g/ha [12] | inhibition at 75 g/ha [13] | inhibition at 75 g/ha [14]

Cc1ccccc1CO[C@@H]1C[C@]2(C(C)C)O[C@@]1(C)C[C@@H]2Cl [1-9, (1R,2S,4S,5R)-2-chloro-1-isopropyl-4-methyl-5-(o-tolylmethoxy)-7-oxabicyclo[2.2.1]heptane]
≥ 80%: pest or weed control at 1200 g/ha [1] | pest or weed control at 1200 g/ha [2] | inhibition at 1200 g/ha [3] | inhibition at 1200 g/ha [4] | inhibition at 1200 g/ha [5] | inhibition at 1200 g/ha [6] | inhibition at 1200 g/ha [7] | inhibition at 1200 g/ha [8] | inhibition at 75 g/ha [9] | inhibition at 75 g/ha [10] | inhibition at 75 g/ha [11] | inhibition at 75 g/ha [12] | inhibition at 75 g/ha [13] | inhibition at 75 g/ha [14]

CC(C)C12CC(OCc3cccs3)C(C)(CC1Br)O2 (stereo not drawn) [1-1389, 5-bromo-1-methyl-4-isopropyl-2-(thiophen-2-ylmethoxy)-7-oxabicyclo[2.2.1]heptane]
≥ 80%: pest or weed control at 1200 g/ha [1] | pest or weed control at 1200 g/ha [2] | inhibition at 1200 g/ha [3] | inhibition at 1200 g/ha [4] | inhibition at 1200 g/ha [5] | inhibition at 1200 g/ha [6] | inhibition at 1200 g/ha [7] | inhibition at 1200 g/ha [8] | inhibition at 75 g/ha [9] | inhibition at 75 g/ha [10] | inhibition at 75 g/ha [11] | inhibition at 75 g/ha [12] | inhibition at 75 g/ha [13] | inhibition at 75 g/ha [14]

CC(C)[C@]12C[C@@H](OCc3ccccc3Cl)[C@](C)(C[C@@H]1I)O2 [1-756, (1R,2S,4S,5R)-5-[(2-chlorophenyl)methoxy]-2-iodo-1-isopropyl-4-methyl-7-oxabicyclo[2.2.1]heptane]
≥ 80%: pest or weed control at 1200 g/ha [1] | pest or weed control at 1200 g/ha [2] | inhibition at 1200 g/ha [3] | inhibition at 1200 g/ha [4] | inhibition at 1200 g/ha [5] | inhibition at 1200 g/ha [6] | inhibition at 1200 g/ha [7] | inhibition at 1200 g/ha [8] | inhibition at 75 g/ha [9] | inhibition at 75 g/ha [10] | inhibition at 75 g/ha [11] | inhibition at 75 g/ha [12] | inhibition at 75 g/ha [13] | inhibition at 75 g/ha [14]
